Key:
Format in all cases: functional
Pseudomonas aeruginosa [1] = assay: Antimicrobial activity against beta-lactamase-producing Pseudomonas aeruginosa clinical isolate assessed as susceptible isolates by agar dilution method
Pseudomonas aeruginosa [2] = assay: Antimicrobial activity against ESBL- and MBL-producing Pseudomonas aeruginosa isolated from patients with bloodstream infection assessed as resistant isolates by agar dilution method
Pseudomonas aeruginosa [3] = assay: Antimicrobial activity against Pseudomonas aeruginosa clinical isolate overexpressing AmpC gene assessed as resistant isolates by agar dilution method
Pseudomonas aeruginosa [4] = assay: Antimicrobial activity against ESBL- and MBL-producing and ceftazidime-resistant Pseudomonas aeruginosa isolated from patients with bloodstream infection assessed as resistant isolates by agar dilution method
Pseudomonas aeruginosa [5] = assay: Antimicrobial activity against beta-lactamase-producing Pseudomonas aeruginosa clinical isolate assessed as susceptible isolate by agar dilution method in presence of beta-lactamase inhibitor Tazobactam
Pseudomonas aeruginosa [6] = assay: Antimicrobial activity against beta-lactamase-producing Pseudomonas aeruginosa clinical isolate by agar dilution method

| Compound | Activity (Pseudomonas aeruginosa [1]) | Activity (Pseudomonas aeruginosa [4]) | further results |
| --- | --- | --- | --- |
| NCC[C@H](O)C(=O)N[C@@H]1C[C@H](N)[C@@H](O[C@H]2O[C@H](CN)[C@@H](O)[C@H](O)[C@H]2O)[C@H](O)[C@H]1O[C@H]1O[C@H](CO)[C@@H](O)[C@H](N)[C@H]1O [AMIKACIN] | 18.6% |  |  |
| CC(C)(O/N=C(\C(=O)N[C@@H]1C(=O)N2C(C(=O)[O-])=C(C[n+]3ccccc3)CS[C@H]12)c1csc(N)n1)C(=O)O [CEFTAZIDIME] |  |  | Activity (Pseudomonas aeruginosa [2]): 28%; Activity (Pseudomonas aeruginosa [3]): 9.3% |
| C[C@@H](O)[C@H]1C(=O)N2C(C(=O)O)=C(SCCNC=N)C[C@H]12 [IMIPENEM ANHYDROUS] | 18.6% | 82% |  |
| C[C@@H](O)[C@H]1C(=O)N2C(C(=O)O)=C(S[C@@H]3CN[C@H](C(=O)N(C)C)C3)[C@H](C)[C@H]12 [MEROPENEM] |  | 95% |  |
| CCN1CCN(C(=O)N[C@@H](C(=O)N[C@@H]2C(=O)N3[C@@H]2SC(C)(C)[C@@H]3C(=O)O)c2ccccc2)C(=O)C1=O [PIPERACILLIN] | 34.8% |  | Activity (Pseudomonas aeruginosa [5]): 39.5%; MIC (Pseudomonas aeruginosa [6]): ≤ 16 µg/mL |
| COLISTIN | 100% |  |  |
